Data reported in article PMC8167039, “A Comparative Study of Human and Zebrafish Pregnane X Receptor Activities of Pesticides and Steroids Using In Vitro Reporter Gene Assays” (Frontiers in Endocrinology, 2021).
Where two headings read alike, the source gives them in different places.

Legend:
hPXR = biological target: T1, hPXR (Homo sapiens, UniProt O75469); assay: HG5LN Gal4-hPXR luciferase reporter gene assay, agonism
T1 sequence (O75469 146-433 limits assumed): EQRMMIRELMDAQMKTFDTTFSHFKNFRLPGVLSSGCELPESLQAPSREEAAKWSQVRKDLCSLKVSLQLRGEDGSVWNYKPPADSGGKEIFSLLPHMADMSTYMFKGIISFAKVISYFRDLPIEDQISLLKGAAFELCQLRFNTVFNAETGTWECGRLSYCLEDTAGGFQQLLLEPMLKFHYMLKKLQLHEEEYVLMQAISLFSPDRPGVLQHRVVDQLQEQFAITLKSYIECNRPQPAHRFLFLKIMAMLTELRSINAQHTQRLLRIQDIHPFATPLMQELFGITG
Description: (§1) The cell lines used in this study are listed in Supplementary Table 3 . The HG5LN, HG5LN Gal4-hPXR and HG5LN Gal4-zfPXR cell lines were previously described ([19]). Briefly, HeLa cells stably transfected with the GAL4RE5-βGlobin-Luc-SVNeo plasmid (HG5LN cell line) ([15]). HG5LN cells were stably transfected with the pSG5-GAL4(DBD)-hPXR(LBD)-puro or pSG5-GAL4(DBD)-zfPXR(LBD)-puro plasmids.
(§2) HG5LN cells were cultured in Dulbecco’s Modified Eagle Medium: Nutrient Mixture F-12 (D-MEM/F-12) containing phenol red and 1 g/L glucose and supplemented with 5% fetal bovine serum, 100 units/mL of penicillin and 100 µg/mL of streptomycin supplemented with 1 mg/mL geneticin in a 5% CO2 humidified atmosphere at 37°C. HG5LN GAL4-hPXR and GAL4-zfPXR were cultured in the same culture medium supplemented with 0.5 µg/mL puromycin.
(§3) The ability of chemicals to modulate the hPXR and zfPXR was investigated in HG5LN, HG5LN-hPXR, HG5LN-zfPXR, and ZFL-zfPXR cell lines after exposure to serial dilutions of the compounds and measurement of luciferase activity. […] Briefly, cells were seeded in 96-well white opaque flat bottom microplates at 0.5 10^5 cells per well in culture medium. […] Cells were then exposed to a concentration range of the compounds by using an automated workstation (Biomek 3000, Beckman Coulter). The final concentration of DMSO in the well never exceeds 0.1% (v/v). After 16h of exposure, medium was removed and 50 µL of test medium containing 0.3 mM D-luciferin were added per well. After 5 min, the production of light was assessed in living cells using microplate reader (MicroBeta, PerkinElmer SAS, Courtabœuf, France).
(§4) In the transactivation assay, each compound was tested at various concentrations in three independent experiments at least. For each experiment, tests were performed in quadruplicates for each concentration, and data are expressed by means values with standard deviations. […] This allowed to determine EC50 and IC50 values of tested chemicals.

zfPXR [1] = biological target: T2, zfPXR (Danio rerio, UniProt A5WYG8); assay: HG5LN Gal4-zfPXR luciferase reporter gene assay, antagonism (coexposure with clotrimazole); assay type: cell-based, zebrafish
Description: as §1, §2, §3, §4

zfPXR [2] = biological target: T2, zfPXR; assay: cell-based
Description: as §3, §4

zfPXR [3] = biological target: T2, zfPXR; assay: cell-based; parameters: Emax: dose or concentration left out as unconfirmed
Description: as §3, §4

zfPXR [4] = biological target: T2, zfPXR; assay: HG5LN Gal4-zfPXR luciferase reporter gene assay, agonism; assay type: cell-based, zebrafish
Description: as §1, §2, §3, §4

T2 sequence (A5WYG8 entry or part of it): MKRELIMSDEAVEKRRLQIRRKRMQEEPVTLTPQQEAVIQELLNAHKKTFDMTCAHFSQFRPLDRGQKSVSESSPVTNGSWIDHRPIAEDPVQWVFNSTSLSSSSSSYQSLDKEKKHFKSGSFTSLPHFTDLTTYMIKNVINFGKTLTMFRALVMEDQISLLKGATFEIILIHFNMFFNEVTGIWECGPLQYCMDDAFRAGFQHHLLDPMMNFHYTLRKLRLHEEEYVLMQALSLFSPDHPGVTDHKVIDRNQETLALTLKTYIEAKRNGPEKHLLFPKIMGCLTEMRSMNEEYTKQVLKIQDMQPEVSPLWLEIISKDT

For `CC1(C)[C@H](C(=O)O[C@H](C#N)c2cccc(Oc3ccccc3)c2)[C@@H]1C=C(Br)Br` [Deltamethrin], the EC50 (hPXR) was 1800 ± 200 nM, the “hPXR agonism Max” value (hPXR; HG5LN-hPXR, maximal activity at 10 µM, % of maximal induced by 3 µM SR 12813, DMSO 19 ± 6) was 92% and the IC50 (zfPXR [1]) was 1600 ± 200 nM. For the same molecule, the remaining activity at 10 µM (zfPXR [1]; HG5LN, read-out: zfPXR antagonism Min) was 21%, the IC50 (zfPXR [2]) was 1600 ± 60 nM and the “zfPXR antagonism Min” value (zfPXR [2]; ZFL-zfPXR, minimal activity at 10 µM, coexposure with 0.03 µM clotrimazole, % of maximal induced by 1 µM clotrimazole) was 3%.

In the case of `C#C[C@]1(O)CC[C@H]2[C@@H]3CCC4=CCCC[C@@H]4[C@H]3C(=C)C[C@@]21CC` [Desogestrel, reference compound], the “hPXR agonism Max” value (hPXR) is reported as 54%, the EC50 (zfPXR [3]) is reported as 70 ± 4 nM and the EC50 (zfPXR [4]; HG5LN-zfPXR cells, 16h exposure, n.a. = not active, read-out: zfPXR agonism EC50) is reported as 130 ± 10 nM.

`CCC(CC)Nc1c([N+](=O)[O-])cc(C)c(C)c1[N+](=O)[O-]` [Pendimethalin] was tested, and the EC50 (hPXR) was 3000 ± 100 nM, the “hPXR agonism Max” value (hPXR) was 91% and the EC50 (zfPXR [3]) was 120 ± 10 nM. For the same molecule, the Emax (zfPXR [3]; read-out: zfPXR agonism Max) was 92% and the EC50 (zfPXR [4]) was 470 ± 100 nM.
